# Laboratory results published in patent US10052306B2 (LUC THERAPEUTICS, INC., priority 2013, dated 2018).
# Molecular target: NR1/NR2B (Homo sapiens (Human), UniProt Q05586+Q13224)
# Test: Cell assay: FDSS Ca2+ influx inhibition in HEK293 cells expressing NR1/NR2B;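 note: Fluo-8 Ca2+ signal read on Hamamatsu FDSS 6000 after glutamate, glycine and Ca2+ challenge following 10 min compound preincubation, end/baseline fluorescence ratio compared with MK801 control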
# Conditions: Ca2+ influx
# [1] = NR2B NAM IC50, HEK293 cells expressing NR1/NR2B
# [2] = Binned Activity, HEK293 cells expressing NR1/NR2B, binned NR2B NAM IC50
# Sequence of NR1/NR2B (Q13224 27-1484, other chains not shown): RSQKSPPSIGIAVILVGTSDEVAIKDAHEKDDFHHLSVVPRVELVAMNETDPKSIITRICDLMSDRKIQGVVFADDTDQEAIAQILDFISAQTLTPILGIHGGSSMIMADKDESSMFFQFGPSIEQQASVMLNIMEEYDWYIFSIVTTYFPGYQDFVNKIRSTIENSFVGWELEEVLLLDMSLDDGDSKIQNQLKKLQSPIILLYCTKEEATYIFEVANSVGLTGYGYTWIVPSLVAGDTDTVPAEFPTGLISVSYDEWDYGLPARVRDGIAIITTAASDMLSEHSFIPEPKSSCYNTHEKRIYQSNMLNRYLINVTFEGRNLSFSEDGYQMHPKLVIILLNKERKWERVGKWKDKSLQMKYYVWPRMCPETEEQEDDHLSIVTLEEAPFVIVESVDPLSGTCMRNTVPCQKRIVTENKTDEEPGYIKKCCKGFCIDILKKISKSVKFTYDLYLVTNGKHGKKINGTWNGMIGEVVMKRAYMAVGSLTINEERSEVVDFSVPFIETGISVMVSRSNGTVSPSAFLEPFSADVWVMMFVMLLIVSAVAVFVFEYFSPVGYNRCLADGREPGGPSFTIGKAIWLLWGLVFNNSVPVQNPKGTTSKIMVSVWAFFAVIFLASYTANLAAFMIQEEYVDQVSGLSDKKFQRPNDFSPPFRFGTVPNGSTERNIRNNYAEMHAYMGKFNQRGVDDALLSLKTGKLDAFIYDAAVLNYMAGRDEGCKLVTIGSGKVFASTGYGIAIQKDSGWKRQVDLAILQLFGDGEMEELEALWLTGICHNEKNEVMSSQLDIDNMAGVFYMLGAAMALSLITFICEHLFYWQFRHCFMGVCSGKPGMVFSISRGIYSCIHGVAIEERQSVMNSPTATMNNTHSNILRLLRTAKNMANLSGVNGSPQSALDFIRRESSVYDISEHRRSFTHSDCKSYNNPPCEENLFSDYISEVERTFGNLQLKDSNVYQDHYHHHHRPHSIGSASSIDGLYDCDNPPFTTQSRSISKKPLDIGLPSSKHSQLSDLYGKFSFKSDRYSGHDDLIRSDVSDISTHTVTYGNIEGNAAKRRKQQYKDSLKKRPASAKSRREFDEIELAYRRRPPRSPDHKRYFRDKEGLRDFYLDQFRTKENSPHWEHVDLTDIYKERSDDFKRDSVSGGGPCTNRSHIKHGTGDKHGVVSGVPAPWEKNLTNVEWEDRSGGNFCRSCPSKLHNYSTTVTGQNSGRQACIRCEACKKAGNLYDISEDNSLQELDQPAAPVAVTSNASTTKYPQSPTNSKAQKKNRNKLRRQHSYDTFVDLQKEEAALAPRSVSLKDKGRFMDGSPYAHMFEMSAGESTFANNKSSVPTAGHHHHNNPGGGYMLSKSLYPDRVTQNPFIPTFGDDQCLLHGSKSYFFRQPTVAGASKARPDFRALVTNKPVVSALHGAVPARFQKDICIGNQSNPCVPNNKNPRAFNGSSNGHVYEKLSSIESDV
IC50 [1],IC50 [2],Compound
36.3 nM,–,"COc1ccc(C[C@]2(O)C[C@H]3CN(CC(O)c4ccc(O)cn4)C[C@H]3C2)cc1 (mixture of isomers) [Example 199, rac-6-{2-[(3aR,5R,6aS)-5-hydroxy-5-[(4-methoxyphenyl)methyl]-octahydrocyclopenta[c]pyrrol-2-yl]-1-hydroxyethyl}pyridin-3-ol]"
382 nM,–,"COc1cccc(C[C@]2(O)C[C@H]3CN(CC(O)c4ccc(O)c(F)n4)C[C@H]3C2)c1 (mixture of isomers) [Example 201, rac-(3aR,5r,6aS)-2-(2-(6-fluoro-5-hydroxypyridin-2-yl)-2-hydroxyethyl)-5-(3-methoxy-benzyl)octahydro-cyclopenta[c]pyrrol-5-ol]"
3400 nM,1000 to 10000 nM,"Oc1cnc(C(O)CN2C[C@@H]3C[C@@](O)(Cc4ccccc4)C[C@@H]3C2)nc1 (mixture of isomers) [Example 203, rac-2-{2-[(3aR,5R,6aS)-5-benzyl-5-hydroxy-octahydrocyclopenta[c]pyrrol-2-yl]-1-hydroxyethyl}pyrimidin-5-ol]"
12.6 nM,–,"Oc1ccc(C(O)CN2C[C@@H]3C[C@@](O)(Cc4cccs4)C[C@@H]3C2)cc1 (mixture of isomers) [Example 204, rac-(3aR,5r,6aS)-2-(2-hydroxy-2-(4-hydroxyphenyl)ethyl)-5-(thiophen-2-ylmethyl)octahydrocyclo-penta[c]pyrrol-5-ol]"
666 nM,–,"Cc1cc(C)cc(C[C@]2(O)C[C@H]3CN(CC(O)c4ccc(O)cn4)C[C@H]3C2)c1 (mixture of isomers) [Example 208, rac-6-{2-[(3aR,5R,6aS)-5-[(3,5-dimethylphenyl)methyl]-5-hydroxy-octahydrocyclopenta[c]pyrrol-2-yl]-1-hydroxyethyl}pyridin-3-ol-3-ol]"
410 nM,–,"Oc1ccc(C(O)CN2C[C@@H]3C[C@@](O)(CC4CCCCC4)C[C@@H]3C2)cc1 (mixture of isomers) [Example 209, rac-(3aR,5R,6aS)-5-(cyclohexylmethyl)-2-[2-hydroxy-2-(4-hydroxyphenyl)ethyl]-octahydrocyclopenta[c] pyrrol-5-ol]"
≥ 10000 nM,> 10000 nM,"Oc1ccc(C(O)CN2C[C@@H]3C[C@@](O)(CC4CC4)C[C@@H]3C2)cc1 (mixture of isomers) [Example 211, rac-(3aR,5r,6aS)-5-(cyclopropylmethyl)-2-(2-hydroxy-2-(4-hydroxyphenyl)ethyl) octahydrocyclopenta [c]pyrrol-5-ol]"
566 nM,–,"Cc1cc(C)cc(C[C@]2(O)C[C@H]3CN(CC(O)c4ccc(O)cc4)C[C@H]3C2)c1 (mixture of isomers) [Example 213, rac-(3aR,5R,6aS)-5-[(3,5-dimethylphenyl)methyl]-2-[2-hydroxy-2-(4-hydroxyphenyl)ethyl]-octahydrocyclopenta[c] pyrrol-5-ol]"
2630 nM,–,"Oc1ccc(C(O)CN2C[C@@H]3C[C@@](O)(CC4CCCCC4)C[C@@H]3C2)nc1 (mixture of isomers) [Example 214, rac-6-{2-[(3aR,5R,6aS)-5-(cyclohexylmethyl)-5-hydroxy-octahydrocyclopenta[c]pyrrol-2-yl]-1-hydroxyethyl}pyridin-3-ol]"
25.7 nM,–,"Oc1ccc(C(O)CN2C[C@@H]3C[C@@](O)(Cc4cccs4)C[C@@H]3C2)nc1 (mixture of isomers) [Example 215, rac-2-(2-hydroxy-2-(5-hydroxypyridin-2-yl)ethyl)-5-(thiophen-2-ylmethyl)octahydrocyclo-penta[c]pyrrol-5-ol]"
36 nM,–,"Oc1ccc(C(O)CN2C[C@@H]3C[C@@](O)(Cc4ccc(C(F)(F)F)cc4)C[C@@H]3C2)nc1 (mixture of isomers) [Example 217, rac-6-{2-[(3aR,5R,6aS)-5-hydroxy-5-{[4-(trifluoromethyl)phenyl]methyl}-octahydrocyclopenta[c]pyrrol-2-yl]-1-hydroxyethyl}pyridin-3-ol]"
19.3 nM,< 100 nM,"Oc1ccc(C(O)CN2C[C@@H]3C[C@@](O)(Cc4cccs4)C[C@@H]3C2)cc1F (mixture of isomers) [Example 222, rac-2-(2-(3-fluoro-4-hydroxyphenyl)-2-hydroxyethyl)-5-(thiophen-2-ylmethyl)octahydrocyclo-penta[c]pyrrol-5-ol]"
11.5 nM,< 100 nM,"Oc1ccc(C(O)CN2C[C@@H]3C[C@@](O)(Cc4ccc(Cl)cc4)C[C@@H]3C2)nc1 (mixture of isomers) [Example 223, rac-(3aR,5r,6aS)-5-(4-chlorobenzyl)-2-(2-hydroxy-2-(5-hydroxypyridin-2-yl)ethyl)octahydrocyclo-penta[c]pyrrol-5-ol]"
84.8 nM,–,"Oc1ccc(C(O)CN2C[C@@H]3C[C@@](O)(Cc4ccc(C(F)(F)F)cc4)C[C@@H]3C2)cc1 (mixture of isomers) [Example 224, rac-(3aR,5R,6aS)-2-[2-hydroxy-2-(4-hydroxyphenyl)ethyl]-5-{[4-(trifluoromethyl)phenyl]methyl}-octahydrocyclopenta[c] pyrrol-5-ol]"
3150 nM,–,"Oc1ccc(C(O)CN2C[C@@H]3C[C@@](O)(Cc4ccncc4)C[C@@H]3C2)cc1 (mixture of isomers) [Example 227, rac-(3aR,5r,6aS)-2-(2-hydroxy-2-(4-hydroxyphenyl)ethyl)-5-(pyridin-4-ylmethyl)octahydrocyclo-penta[c]pyrrol-5-ol]"
40.9 nM,< 100 nM,"Oc1ccc(C(O)CN2C[C@@H]3C[C@@](O)(Cc4ccccc4F)C[C@@H]3C2)nc1 (mixture of isomers) [Example 228, rac-5-(2-fluorobenzyl)-2-(2-hydroxy-2-(5-hydroxypyridin-2-yl)ethyl)octahydrocyclo-penta[c]pyrrol-5-olyl)ethanone]"
15.5 nM,< 100 nM,"Oc1ccc(C(O)CN2C[C@@H]3C[C@@](O)(Cc4ccccc4F)C[C@@H]3C2)cc1 (mixture of isomers) [Example 229, rac-(3aR,5r,6aS)-5-(2-fluorobenzyl)-2-(2-hydroxy-2-(4-hy-droxyphenyl)ethyl)octa-hydrocyclopenta[c] pyrrol-5-ol]"
669 nM,–,"Oc1ccc(C(O)CN2C[C@@H]3C[C@@](O)(Cc4ccccn4)C[C@@H]3C2)cc1 (mixture of isomers) [Example 232, rac-(3aR,5r,6aS)-2-(2-hydroxy-2-(4-hydroxyphenyl)ethyl)-5-(pyridin-2-ylmethyl)octahydrocyclo-penta[c]pyrrol-5-ol]"
29.9 nM,< 100 nM,"Oc1ccc(C(O)CN2C[C@@H]3C[C@@](O)(Cc4ccc(F)cc4F)C[C@@H]3C2)nc1 (mixture of isomers) [Example 233, rac-(3aR,5r,6aS)-5-(2,4-difluorobenzyl)-2-(2-hydroxy-2-(5-hydroxypyridin-2-yl)ethyl)octahydrocyclo-penta[c]pyrrol-5-ol]"
114 nM,–,"CS(=O)(=O)Nc1ccc(C(O)CN2C[C@@H]3C[C@@](O)(Cc4ccccc4)C[C@@H]3C2)nc1 (mixture of isomers) [Example 236, rac-N-(6-(2-((3aR,5r,6aS)-5-benzyl-5-hydroxyhexahydrocyclo-penta[c]pyrrol-2(1H)-yl)-1-hydroxyethyl)pyridin-3-yl)methanesulfonamide]"
69.6 nM,–,"Oc1ccc(C(O)CN2C[C@@H]3C[C@@](O)(Cc4c(F)cccc4F)C[C@@H]3C2)nc1 (mixture of isomers) [Example 240, rac-6-{2-[(3aR,5R,6aS)-5-[(2,6-difluorophenyl)methyl]-5-hydroxy-octahydrocyclopenta[c]pyrrol-2-yl]-1-hydroxyethyl}pyridin-3-ol]"
75.7 nM,–,"Cc1cc(F)ccc1C[C@]1(O)C[C@H]2CN(CC(O)c3ccc(O)cn3)C[C@H]2C1 (mixture of isomers) [Example 243, rac-(3aR,5r,6aS)-5-(4-fluoro-2-methylbenzyl)-2-(2-hydroxy-2-(5-hydroxypyridin-2-yl)ethyl)octahydrocyclo-penta[c]pyrrol-5-ol]"
